Experimental data published in paper PMC11513924, “Addressing the Intracellular Vestibule of the Plasmodial Lactate Transporter PfFNT by p-Substituted Inhibitors Amplifies In Vitro Activity” (Journal of Medicinal Chemistry, 2024).

Assays:
PfFNT [1] = biological target: T1, PfFNT (Plasmodium falciparum, UniProt O77389); assay: Fluorescence cross-correlation spectroscopy (FCCS) competition binding to solubilized PfFNT-GFP; details: competition against BH267.meta-DY647 tracer, Cheng Prusoff; read-out: Ki (FCCS, protein)
T1 construct: expressed in transfected cells; membranes solubilized
T1 sequence (O77389 1-309): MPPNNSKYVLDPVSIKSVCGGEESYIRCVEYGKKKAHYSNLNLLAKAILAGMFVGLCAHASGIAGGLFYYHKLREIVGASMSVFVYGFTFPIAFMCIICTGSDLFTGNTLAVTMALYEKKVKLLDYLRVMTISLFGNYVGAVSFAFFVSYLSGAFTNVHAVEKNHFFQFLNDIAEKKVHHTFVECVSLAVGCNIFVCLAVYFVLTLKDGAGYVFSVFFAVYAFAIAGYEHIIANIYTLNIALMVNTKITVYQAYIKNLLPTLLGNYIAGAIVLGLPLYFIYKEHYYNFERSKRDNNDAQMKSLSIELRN
Description: FCCS measurements were conducted and analyzed as before.[20],[30] Briefly, membranes of stably transfected cells expressing PfFNT with a C-terminal GFP (green) were solubilized. BH267.meta 2 fused with DY647 (red) was used as a tracer to monitor the binding of compounds in a competition assay. Assays were done in […] glass bottom plates (cat. no. PS96B-G175, SWISSCI, Switzerland) using a plate reader (Insight, Evotec Technologies, Germany) fitted with a U-Apo300 40× water immersion lens, NA 1.15 (Olympus, Japan). Excitation was done with an argon-ion laser (488 nm) and a helium–neon laser (633 nm). Fluorescence fluctuations were recorded 10 times for 5 s per sample and fitted using FCS+ plus Analyze (PerkinElmer software). Initially, IC50 values were determined from the concentration of the dual labeled complex titrated against a competitor in a range of 100 pM to 100 μM (Figure S1). Then, Ki values were calculated using the Cheng Prusoff equation[31] based on the previously determined KD value for the BH267.meta-DY647 tracer.[20]

PfFNT [2] = biological target: T1, PfFNT; details: 14C-lactate transport, PfFNT wild type; ref Golldack[4] et al. 2017; read-out: IC50 (transport, yeast); cited from earlier work
[3] = tested on: Plasmodium falciparum 3D7 parasites; assay: P. falciparum 3D7 culture growth assay in erythrocytes (in vitro activity); assay type: cell-based; details: 50 nM compound
Description: The parasitemia was measured using an LSR II FACS (BD Biosciences) as described.[34],[35] Growth was assessed as % of untreated control. EC50 curves were plotted using Graph Pad Prism.
Transport assays in yeast were done in triplicate biological replicates. At least nine technical replicates were measured around the IC50 value, concentrations with no or full inhibition were determined from at least three technical replicates. […] IC50 and EC50 curves were fitted by the Hill equation with variable slope (Graph Pad Prism 10). Error bars denote ± SEM (for n ≥ 3) or ± range (for n = 2). […] Cytotoxicity was determined from biological triplicates; error is shown as SEM.

[4] = tested on: Plasmodium falciparum 3D7 parasites; details: ref Golldack[4] et al. 2017; read-out: EC50 (in vitro, 3D7); cited from earlier work

**Q.** Which Ki (PfFNT [1]) does the source give for “MMV007839 [compound 1, reference compound]” here?
**A.** The Ki was 83 ± 33 nM.

**Q.** And the IC50 (PfFNT [2])?
**A.** The IC50 was 170 ± 10 nM.

**Q.** What about the “% Growth at 50 nM (in vitro, 3D7)” value ([3]; % of untreated control) of the same substance?
**A.** Its value is over 90%.

**Q.** What about the “inhibitory activity at 50 nM (in vitro, 3D7)” value ([3]; 100 minus % growth) of the same substance?
**A.** Its value is under 10%.

**Q.** What about the EC50 [4] of the same substance?
**A.** Its EC50 is 140 ± 10 nM.
